Experimental data: patent publication US20050282840A1, “Methods of modulating neurotrophin-mediated activity” (PainCeptor Pharma Corporation, priority 2004, published 2005)
Where two headings read alike, the source gives them in different places.

Experiments:
[1] = target: T1, p75^NTR receptors (PC12 cells) (Rattus norvegicus, UniProt P07174); assay: Basic screening assay: binding of 125I-BDNF to PC12 cells; settings: read-out: BDNF Activity % Maximal Binding
T1 construct: endogenous in cells; host or cells: PC12 cells
T1 sequence (P07174 30-425): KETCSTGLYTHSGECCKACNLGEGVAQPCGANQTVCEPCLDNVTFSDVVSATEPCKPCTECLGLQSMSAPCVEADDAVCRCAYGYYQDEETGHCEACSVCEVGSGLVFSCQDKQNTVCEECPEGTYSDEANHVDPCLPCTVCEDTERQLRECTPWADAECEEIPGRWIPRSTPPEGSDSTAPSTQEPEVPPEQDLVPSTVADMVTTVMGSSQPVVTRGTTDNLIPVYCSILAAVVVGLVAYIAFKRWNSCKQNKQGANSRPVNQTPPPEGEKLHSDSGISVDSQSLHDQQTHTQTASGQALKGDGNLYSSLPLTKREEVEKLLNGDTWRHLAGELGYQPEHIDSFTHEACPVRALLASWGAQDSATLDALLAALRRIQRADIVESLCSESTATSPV
T1 sequence (P23560 129-247 partner): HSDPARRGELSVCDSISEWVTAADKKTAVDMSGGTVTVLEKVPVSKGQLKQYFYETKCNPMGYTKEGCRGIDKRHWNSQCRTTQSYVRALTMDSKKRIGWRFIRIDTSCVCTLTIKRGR
Protocol: (§1) The compounds were screened for effects on binding of ^125I-BDNF or ^125I-NGF to PC12 cells (p75^NTR receptors), and those that inhibited binding were further tested to determine the EC50 for this inhibition.
(§2) PC12 cells were cultured and prepared for binding assays as described in Example 1.
(§3) Lypophilized Peprotech human recombinant BDNF (Cedarlane Laboratories, Toronto, Canada, cat. # PE 450-02-10) was reconstituted under sterile conditions to 3.5 μM in sterile HKR/1%BSA, and either used immediately or stored in aliquots of 20 μl at −80° C. Immediately prior to use, a 15 nM (30×) solution of ^125I-BDNF or ^125I-NGF was prepared in HKR buffer, and was used at 0.5 nM final concentration.
(§4) Test Compounds were dissolved to 10 mM in DMSO, and those that were not initially soluble were warmed to 40-50° C. and vortexed. Those compounds that were still not in solution were reported as such. Compounds were then stored in this form at −20° C. until use. Immediately before experiments, 100 mM compounds were diluted to 10 mM in DMSO (1:10), followed by a further dilution to 1 mM (1:10) with distilled water, and a further dilution to 500 μM (1:1) with HKR.
(§5) Assays to determine maximum binding (Bmax), non-specific binding (NSB), and binding in the presence of each test compound (e.g., x, y) were performed at least in duplicate. In a total volume of 300 μL, 4×10^6 PC12 cells were incubated, rotating for 2 h at 4° C. with the following:
(§6) At the conclusion of the binding reaction, 100 μL aliquots of the reaction mixtures were carefully layered over 200 μL of a 10% glycerol solution in a 0.4 mL tube, and subjected to centrifugation in a microcentrifuge for 2 minutes at half maximum speed. The cell pellets containing the bound ^125I-BDNF or ^125I-NGF were then measured using a gamma counter. The mean values of the replicates were then calculated to determine the value for maximum binding (Bmax) and nonspecific binding (NSB), and binding in the presence of test compound at 50 μM (Bx). Specific binding (SB) was measured by subtracting the NSB from the Bmax.

[2] = test system: p75^NTR receptors (PC12 cells); assay: Basic screening assay: binding of 125I-NGF to PC12 cells; settings: test compound 50 μM, 0.5 nM 125I-NGF, PC12 cells, 2 h at 4° C., specific binding as percent of control
Protocol: as §1, §2
Lyophilized Serotec mouse 2.5S NGF (Cedarlane Laboratories, Toronto, Canada, cat. # PMP 04Z) was reconstituted under sterile conditions to 1 mg/mL (38 μM) in sterile 0.2% acetic acid, and 100 μL or 50 μL aliquots were stored frozen at −80° C.
as §3, §4, §5
as §6, with “Bmax. Specific binding in the presence of the test compound (SBx) was determined by subtracting the NSB from the Bx for each test compound; and each SBx was divided by SB and multiplied by 100 to give the specific binding in the presence of the compound as a percent of control specific binding.” for “Bmax.”

[3] = Table 1, test compound 50 μM, 0.5 nM 125I-BDNF, PC12 cells, 2 h at 4° C., specific binding as percent of control
[4] = Table 4, test compound 50 μM, 0.5 nM 125I-BDNF, PC12 cells, 2 h at 4° C., specific binding as percent of control

Row | SMILES | NGF Activity % Maximal Binding ([2]; Table 1) | activity at 50 µM [1, 4] [%] | NGF Activity % Maximal Binding ([2]; Table 4) | activity at 50 µM [1] [%] | further results
1 | COC(=O)c1cccc(-c2ccc(/C=C3/SC(=S)N(CC(=O)O)C3=O)o2)c1 [Compound 69, 3-[5-(3-Carboxymethyl-4-oxo-2-thioxo-thiazolidin-5-ylidenemethyl)furan-2-yl]benzoic acid methyl ester] | – | – | – | – | activity at 50 µM ([1]; Table 2, test compound 50 μM, 0.5 nM 125I-BDNF, PC12 cells, 2 h at 4° C., specific binding as percent of control): 0 to 10%; NGF Activity % Maximal Binding ([2]; Table 2): XX (30 < XX < 40)
2 | CCN1C(=O)S/C(=C/c2ccc(-c3ccc([N+](=O)[O-])cc3OC)o2)C1=O [Compound 58, 3-Ethyl-5-[5-(2-methoxy-4-nitrophenyl)furan-2-ylmethylene]-thiazolidine-2,4-dione] | * (50 < *) | – | – | – | activity at 50 µM [1, 3]: 40 to 50%
3 | COCCN1C(=O)C(=Cc2ccc(-c3cccc([N+](=O)[O-])c3)o2)SC1=S [Compound 34, 3-(2-Methoxy-ethyl)-5-[5-(3-nitrophenyl)furan-2-ylmethylene]-2-thioxo-thiazolidin-4-one] | * (50 < *) | – | – | – | activity at 50 µM [1, 3]: 10 to 20%
4 | COc1ccc(CN2C(=O)/C(=C\c3ccc(-c4ccc(S(N)(=O)=O)cc4)o3)SC2=S)cc1 [Compound 37, 4-{5-[3-(4-Methoxybenzyl)-4-oxo-2-thioxo-thiazolidin-5-ylidenemethyl]furan-2-yl}benzenesulfonamide] | * (50 < *) | – | – | – | activity at 50 µM [1, 3]: 20 to 30%
5 | COC(=O)c1cc(-c2ccc(/C=C3/NC(=S)NC3=O)o2)ccc1Cl [Compound 91, 2-Chloro-5-[5-(5-oxo-2-thioxo-imidazolidin-4-ylidenemethyl)furan-2-yl]benzoic acid methyl ester] | – | > 50 | * (50 < *) | – | –
6 | O=C1NC(=O)C(=Cc2ccc(-c3ccc([N+](=O)[O-])cc3Cl)o2)C(=O)N1 [Compound 11, 5-[5-(2-Chloro-4-nitrophenyl)furan-2-ylmethylene]-pyrimidine-2,4,6-trione] | * (50 < *) | – | – | 0 to 10 | –
7 | NS(=O)(=O)c1ccc(-c2ccc(C=C3C(=O)NC(=S)NC3=O)o2)cc1 [Compound 105, 4-[5-(4,6-Dioxo-2-thioxo-tetrahydro-pyrimidin-5-ylidenemethyl)furan-2-yl]benzenesulfonamide] | – | – | * (50 < *) | > 50 | –
8 | COC(=O)C(C)N1C(=O)S/C(=C/c2ccc(-c3cc(C(=O)O)ccc3C)o2)C1=O (stereo not shown) [Compound 29, 3-{5-[3-(1-Methoxycarbonyl-ethyl)-2,4-dioxo-thiazolidin-5-ylidenemethyl]furan-2-yl}-4-methylbenzoic acid] | * (50 < *) | – | – | – | activity at 50 µM [1, 3]: 10 to 20%
9 | Cc1cc([N+](=O)[O-])ccc1-c1ccc(/C=C2/C(=O)NC(=O)N(C)C2=O)o1 [Compound 53, 1-Methyl-5-[5-(2-methyl-4-nitrophenyl)furan-2-ylmethylene]-pyrimidine-2,4,6-trione] | * (50 < *) | – | – | 30 to 40 | –
10 | COC(=O)c1ccc(-c2ccc(/C=C3/NC(=O)N(c4cccc(Cl)c4)C3=O)o2)cc1 [Compound 128, 4-{5-[1-(3-Chlorophenyl)-2,5-dioxo-imidazolidin-4-ylidenemethyl]furan-2-yl}benzoic acid methyl ester] | – | > 50 | * (50 < *) | – | –
11 | Cc1c(-c2ccc(C=C3C(=O)NC(=O)NC3=O)o2)ccc([N+](=O)[O-])c1C [Compound 81, 5-[5-(2,3-Dimethyl-4-nitrophenyl)furan-2-ylmethylene]-pyrimidine-2,4,6-trione] | – | – | – | 20 to 30 | NGF Activity % Maximal Binding ([2]; Table 2): XX (30 < XX < 40)
12 | O=C(O)CCCN1C(=O)C(=Cc2ccc(-c3ccc([N+](=O)[O-])cc3)o2)SC1=S [Compound 98, 4-{5-[5-(4-Nitrophenyl)furan-2-ylmethylene]-4-oxo-2-thioxo-thiazolidin-3-yl}-butyric acid] | – | > 50 | * (50 < *) | – | –
13 | COC(=O)c1cccc(-c2ccc(/C=C3/NC(=O)N(Cc4ccccc4F)C3=O)o2)c1C [Compound 139, 3-{5-[1-(2-Fluorobenzyl)-2,5-dioxo-imidazolidin-4-ylidenemethyl]furan-2-yl}-2-methylbenzoic acid methyl ester] | – | > 50 | * (50 < *) | – | –
14 | Cc1c(-c2ccc(C=C3C(=O)NC(=O)NC3=O)o2)cccc1[N+](=O)[O-] [Compound 109, 5-[5-(2-Methyl-3-nitrophenyl)furan-2-ylmethylene]-pyrimidine-2,4,6-trione] | – | – | * (50 < *) | > 50 | –
15 | CCOC(=O)CN1C(=O)S/C(=C/c2ccc(-c3cccc([N+](=O)[O-])c3)o2)C1=O [Compound 116, {5-[5-(3-Nitrophenyl)furan-2-ylmethylene]-2,4-dioxo-thiazolidin-3-yl}-acetic acid ethyl ester] | – | > 50 | * (50 < *) | – | –
16 | CCOC(=O)CN1C(=O)S/C(=C\c2ccc(-c3ccc(Cl)c([N+](=O)[O-])c3)o2)C1=O [Compound 113, {5-[5-(4-Chloro-3-nitrophenyl)furan-2-ylmethylene]-2,4-dioxo-thiazolidin-3-yl}-acetic acid ethyl ester] | – | > 50 | * (50 < *) | – | –
17 | CN1C(=O)NC(=O)/C(=C/c2ccc(-c3cccc(C(=O)O)c3)o2)C1=O [Compound 77, 3-[5-(1-Methyl-2,4,6-trioxo-tetrahydro-pyrimidin-5-ylidenemethyl)furan-2-yl]benzoic acid] | – | – | – | 10 to 20 | NGF Activity % Maximal Binding ([2]; Table 2): XXX (20 < XXX < 30)
18 | Cc1cccc(N2NC(=O)C(=Cc3ccc(-c4ccc(Cl)c(C(=O)O)c4)o3)C2=O)c1 [Compound 134, 2-Chloro-5-[5-(3,5-dioxo-1-m-tolyl-pyrazolidin-4-ylidenemethyl)furan-2-yl]benzoic acid] | – | > 50 | * (50 < *) | – | –
19 | Cc1ccc(-c2ccc(/C=C3/NC(=O)N(Cc4ccccc4F)C3=O)o2)cc1[N+](=O)[O-] [Compound 129, 3-(2-Fluorobenzyl)-5-[5-(4-methyl-3-nitrophenyl)furan-2-ylmethylene]-imidazolidine-2,4-dione] | – | > 50 | * (50 < *) | – | –
20 | COc1ccc(-c2ccc(C=C3C(=O)N(C)C(=O)N(C)C3=O)o2)cc1[N+](=O)[O-] [Compound 31, 5-[5-(4-Methoxy-3-nitrophenyl)furan-2-ylmethylene]-1,3-dimethyl-pyrimidine-2,4,6-trione] | * (50 < *) | – | – | 10 to 20 | –
